Assay results as given in patent US6150359A, “Naphthyridinones for inhibiting protein tyrosine kinase and cell cycle kinase mediated cellular proliferation” (Warner-Lambert Company, priority 2000, dated 2000).

Key:
HCT-8 cells = experiment: Human Colon Carcinoma Clonogenic Assay, HCT-8; format: cell-based; settings: HCT-8, 2 days with drug, colonies after approximately 2 weeks
Method: (§1) Human Colon Carcinoma Clonozenic Assay. Human colon carcinoma cells are seeded into 6 well plates in volumes of 3 mL and allowed to incubate overnight (37° C., 5% CO2, 95% air). SW-620 cells are seeded at 7×10^5 per well; HCT-8 cells are seeded at 5×10^5 per well; HT-29 cells are seeded at 4×10^5 cells per well. Serially diluted drugs are prepared at 200 times the final concentration, and 15 μL are added to each of duplicate wells. Cells are incubated with drug for 2 days, rinsed once with 1 mL of trypsin+EDTA, and then trypsinized with the same trypsin solution. After trituration and centrifugation at 750×g for 3 minutes, the cells are suspended in serum-free growth medium and counted using an electronic particle counter. An agarose mixture appropriate for the cloning of each cell line is made using 10% fetal bovine serum in growth medium (SW-620-0.35% agarose, HCT-8 and HT-29-0.4% agarose). […] One; milliliter of each of these cell suspensions is added to duplicate wells of 6 well plates previously prepared with 10% serum/growth medium/1% agarose plugs. The cells in these plates are incubated for approximately 2 weeks in the incubator and stained with 1 mL per well of 1 mg/mL iodonitrotetrazolium violet stain. The visible colonies are counted with an electronic optical colony counter and the clonogenicity of treated cells calculated in comparison to untreated control cells.

PDGF receptor = molecular target: T1, PDGF receptor (Rattus norvegicus, UniProt Q05030); experiment: PDGF Receptor Autophosphorylation Assay in rat aorta smooth muscle cells; format: cell-based; settings: PDGF-BB 30 ng/mL, 5 minutes, 2 hours preincubation, read-out: Inhibition of PDGF-Stimulated Receptor Autophosphorylation IC50
T1 construct: endogenous in cells; host or cells: rat aorta smooth muscle cells, primary culture, passages 5 to 20
Method: PDGF Receptor Autophosphorylation Assay. Rat aorta smooth muscle cells (RASMC.) are isolated from the thoracic aorta of rats and explanted according to the method of Ross, J. Cell. Biol., 1971;30:172-186. Cells are grown in Dulbecco's modified Eagle's medium (DMEM, Gibco) containing 10% fetal calf serum (FBS, Hyclone, Logan, Utah), 1% glutamine (Gibco), and 1% penicillin/streptomycin (Gibco). Cells are identified as smooth muscle cells by their "hill and valley" growth pattern and by fluorescent staining with a monoclonal antibody specific for SMC […] (Sigma). RASMC are used between passages 5 and 20 for all experiments. Test compounds are prepared in dimethylsulfoxide (DMSO) in order to achieve consistency in the vehicle and to ensure compound solubility. Appropriate DMSO controls are simultaneously evaluated with the test compounds.
Rat aortic smooth muscle cells are grown to confluency in 100 mm dishes. Growth medium is removed and replaced with serum-free medium, and cells are incubated at 37° C. for an additional 24 hours. Test compounds are then added directly to the medium and cells incubated for an additional 2 hours. After 2 hours, PDGF-BB is added at a final concentration of 30 ng/mL for 5 minutes at 37° C. to stimulate autophosphorylation of PDGF receptors. Following growth factor treatment, the medium is removed, and cells are washed with cold phosphate-buffered saline and immediately lysed with 1 mL of lysis buffer (50 mM Hepes, pH 7.5, 150 mM NaCl, 10% glycerol, 1% Triton-X 100, 1 mM EDTA, 1 mM EGTA, 50 mM NaF, 1 mM sodium orthovanadate, 30 mM p-nitrophenyl phosphate, 10 mM sodium pyrophosphate, 1 mM phenylmethyl sulfonyl fluoride, 10 μg/mL aprotinin, and 10 μg/mL leupeptin). Lysates are centrifuged at 10,000×g for 10 minutes. Supernatants are incubated with 10 μL of rabbit anti-human PDGF type AB receptor antibody (1:1000) for 2 hours. Following the incubation, protein-A-sepharose beads are added for 2 hours with continuous mixing, and immune complexes bound to the beads washed four times with 1 mL lysis wash buffer. Immune complexes are solubilized in 40 μL of Laemmli sample buffer and electrophoresed in 8% to 16% SDS polyacrylamide gels. […] Following extensive washing with PBS-0.2% tween-20, the blots are incubated with horseradish peroxidase labeled goat anti-mouse IgG (1:5000; Bio-Rad Inc., Hercules, Calif.), and protein levels are detected by enhanced chemiluminescence (ECL) detection system according to the instructions of the supplier (Amersham Inc., Arlington Heights, Ill.). The density of the protein bands are determined using NIH Image software (v. 1.56) and IC50 values are generated from the densitometric data.

HT-29 cells = experiment: Human Colon Carcinoma Clonogenic Assay, HT-29; format: cell-based; settings: HT-29, 2 days with drug, colonies after approximately 2 weeks
Method: as §1

c-Src = molecular target: T2, c-Src (Homo sapiens, UniProt P12931); experiment: c-Src kinase assay, 32P incorporation into polyglutamate-tyrosine; format: biochemical; settings: 5 μM ATP
T2 construct: made in house; host or cells: baculovirus infected insect cells
Method: Other Kinases. c-Src kinase is purified from baculovirus infected insect cell lysates using an antipeptide monoclonal antibody directed against the N-terminal 2-17 amino acids as described previously by Fry, et al., Anticancer Drug Design, 1994;9:331-351. Protein kinase C (PKC.) is obtained as a rat brain preparation from Promega.
c-Src. The antibody, covalently linked to 0.65-μm latex beads, is added to a suspension of insect cell lysis buffer comprised of 150 mM NaCl, 50 mM Tris pH 7.5, 1 mM DTT, 1% NP-40, 2 mM EGTA, 1 mM sodium vanadate, 1 mM PMSF, 1 μg/mL each of leupeptin, pepstatin, and aprotinin. Insect cell lysate containing the c-Src protein is incubated with these beads for 3 to 4 hours at 4° C. with rotation. At the end of the lysate incubation, the beads are rinsed three times in lysis buffer, resuspended in lysis buffer containing 10% glycerol, and frozen. These latex beads are thawed, rinsed three times in assay buffer which is comprised of 40 mM tris pH 7.5, 5 mM magnesium chloride, and suspended in the same buffer. In a Millipore 96-well plate with a 0.65 μm polyvinylidine membrane bottom are added the reaction components: 10-μL c-Src beads, 10 μL of 2.5 mg/mL polyglutamate-tyrosine substrate, 5 μM ATP containing 0.2 μCi labeled ^32 P-ATP, 5 μL DMSO containing inhibitors or as a solvent control, and buffer to make the final volume 125 μL. The reaction is started at room temperature by addition of the ATP and quenched 10 minutes later by the addition of 125 μL of 30% TCA, 0.1 M sodium pyrophosphate for 15 minutes on ice. The plate is then filtered and the wells washed with two 250-μL aliquots of 15% TCA, 0.1 M pyrophosphate. The filters are punched, counted in a liquid scintillation counter, and the data examined for inhibitory activity in comparison to a known inhibitor such as erbstatin. The method is described more fully in J. Med. Chem., 1994;37:598-609.

T1 sequence (Q05030 32-1097): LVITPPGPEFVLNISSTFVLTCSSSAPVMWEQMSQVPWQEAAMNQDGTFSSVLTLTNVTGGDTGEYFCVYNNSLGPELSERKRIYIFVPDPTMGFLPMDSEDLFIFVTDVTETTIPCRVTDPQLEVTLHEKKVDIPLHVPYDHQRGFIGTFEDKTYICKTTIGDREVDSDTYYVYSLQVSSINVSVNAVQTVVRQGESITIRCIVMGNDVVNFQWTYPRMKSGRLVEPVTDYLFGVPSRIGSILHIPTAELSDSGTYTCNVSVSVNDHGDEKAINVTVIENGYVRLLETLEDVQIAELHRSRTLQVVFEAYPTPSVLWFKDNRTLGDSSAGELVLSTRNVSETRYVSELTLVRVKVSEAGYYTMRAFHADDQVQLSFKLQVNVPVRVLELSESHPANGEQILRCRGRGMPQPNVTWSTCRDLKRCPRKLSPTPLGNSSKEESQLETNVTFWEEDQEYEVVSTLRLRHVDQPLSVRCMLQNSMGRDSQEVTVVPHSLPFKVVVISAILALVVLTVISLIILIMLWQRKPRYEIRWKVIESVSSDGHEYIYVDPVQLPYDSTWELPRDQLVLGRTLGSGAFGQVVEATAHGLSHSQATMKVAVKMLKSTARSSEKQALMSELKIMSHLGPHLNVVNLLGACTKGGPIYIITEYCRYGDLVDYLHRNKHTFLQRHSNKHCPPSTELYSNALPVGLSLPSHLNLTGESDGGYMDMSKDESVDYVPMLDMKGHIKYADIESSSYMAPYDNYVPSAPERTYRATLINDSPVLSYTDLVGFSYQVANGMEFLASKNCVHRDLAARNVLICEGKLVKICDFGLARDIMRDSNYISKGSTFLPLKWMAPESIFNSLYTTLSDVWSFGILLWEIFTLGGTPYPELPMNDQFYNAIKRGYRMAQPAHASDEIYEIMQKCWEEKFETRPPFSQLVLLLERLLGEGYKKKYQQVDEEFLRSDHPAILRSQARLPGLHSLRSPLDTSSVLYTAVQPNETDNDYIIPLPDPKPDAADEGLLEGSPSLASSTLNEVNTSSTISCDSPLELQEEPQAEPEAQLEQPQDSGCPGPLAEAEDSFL
T2 sequence (P12931 whole entry, species assumed): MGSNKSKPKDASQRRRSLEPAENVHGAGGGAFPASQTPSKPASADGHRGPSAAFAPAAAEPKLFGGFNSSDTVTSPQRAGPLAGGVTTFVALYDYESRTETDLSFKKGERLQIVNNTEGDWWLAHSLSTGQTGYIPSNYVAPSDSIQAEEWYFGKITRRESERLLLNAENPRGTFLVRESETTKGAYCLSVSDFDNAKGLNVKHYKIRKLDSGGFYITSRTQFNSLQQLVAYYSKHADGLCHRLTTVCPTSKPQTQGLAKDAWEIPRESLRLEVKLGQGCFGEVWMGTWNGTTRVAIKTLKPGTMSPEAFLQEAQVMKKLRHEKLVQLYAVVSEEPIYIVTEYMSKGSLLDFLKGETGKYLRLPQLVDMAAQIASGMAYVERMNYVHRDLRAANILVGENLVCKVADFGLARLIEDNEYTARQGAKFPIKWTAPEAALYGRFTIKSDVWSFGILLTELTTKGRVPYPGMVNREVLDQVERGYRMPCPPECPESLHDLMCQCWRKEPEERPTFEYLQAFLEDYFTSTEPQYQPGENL

Structure (SMILES)	IC50 (HCT-8 cells)	IC50 (PDGF receptor)	IC50 (HT-29 cells)	IC50 (c-Src)
CN1CCN(CCCNc2cc3c(cn2)cc(-c2c(Cl)cccc2Cl)c(=O)n3C)CC1 [Example H, 3-(2,6-dichlorophenyl)-1-methyl-7-[3-(4-methylpiperazin-1-yl)propylamino]-1H-[1,6]naphthyridin-2-one]	> 5000 nM	> 10000 nM	> 5000 nM	60 nM
CCN(CC)CCCCNc1cc2c(cn1)cc(-c1c(Cl)cccc1Cl)c(=O)n2C [Example F, 3-(2,6-dichlorophenyl)-7-[4-(diethylamino)butylamino]-1-methyl-1H-[1,6]naphthyridin-2-one]	> 5000 nM	490 nM	> 5000 nM	40 nM
CCN(CC)CCOc1ccc(Nc2cc3c(cn2)cc(-c2c(Cl)cccc2Cl)c(=O)n3C)cc1 [Example P, 3-(2,6-dichlorophenyl)-7-[(4-(2-(diethylamino)ethoxy)phenyl)amino]-1-methyl-1H-[1,6]naphthyridin-2-one]	> 5000 nM	230 nM	> 5000 nM	80 nM
CN1CCN(CCOc2ccc(Nc3cc4c(cn3)cc(-c3c(Cl)cccc3Cl)c(=O)n4C)cc2)CC1 [Example S, 3-(2,6-dichlorophenyl)-1-methyl-7-[(4-(2-(4-methylpiperazin-1-yl)ethoxy)phenyl)amino]-1H-[1,6]naphthyridin-2-one]	–	810 nM	–	20 nM
